Source: patent US20230183640A1, “METABOLIC INHIBITORS WITH EFFICACY FOR INHIBITING SULFIDE PRODUCTION IN HARSH ENVIRONMENTS” (MC (US) 3 LLC, priority 2020, published 2023)

Assays:
Test in all cases: Log (Growth) efficacy in aerobic conditions, non-SRB bacteria
Type in all cases: cell-based
[1] = tested on: Pseudomonas aeruginosa 15442
Procedure: (§1) 24-hour cultures were made of ATCC Escherichia coli 8739, Pseudomonas aeruginosa 15442, Enterobacter aerogenes 13048, and Klebsiella pneumoniae 13883. The cultures were prepared by taking a loop of a pure bacterial colony and inoculating 10 mL of TSB. These were grown for 24 hours at 30° C.
(§2) Following the 24-hour incubation, 600 microliters (μL) were taken from each culture and optical density (OD) was measured using a Thermofisher Spectronic 200 Spectrophotometer at 600 nm. Each culture was diluted to 0.05 OD600 in fresh Phosphate Buffered Saline (PBS). Using these cultures, two deep well plates were prepared. Edge wells were not used due to their inherent variability and evaporation of the media. Each of the components were added at their respective concentrations for a final volume of […] per well. In Table 8, the concentrations of the compound C1 used for the experiments are listed. Each experiment was done with at least three replicates for different treatments and non-treatment controls. Plates were then sealed with a titer-top and incubated in an incubator at 30° C.
(§3) Enumerations were done at each time point, which included 0 hour, 1 hour, 4 hours and 24 hours. Enumeration plates were made to determine the log growth in each dosed sample. For this process, enumeration plates were prepared by adding 180 μL fresh TSB. 20 μL was taken from each well of the challenge plates and transferred to the enumeration plates using a 20-200 μL multichannel pipette. Enumeration plates were mixed three times using the multichannel pipette and serial diluted down the plate tenfold (20 μL into 180 μL). This serial dilution process was repeated for all challenge plate rows giving a total of 6 enumeration plates. These enumeration plates were read after 24-hours and by counting the number of turbid wells in a row.

[2] = tested on: Enterobacter aerogenes 13048
Procedure: as §1, §2, §3

[3] = tested on: Klebsiella pneumoniae 13883
Procedure: as §1, §2, §3

[4] = tested on: Escherichia coli 8739
Procedure: as §1, §2, §3

Measured: Log (Growth)

O=C(CN1C(=O)c2cccc3cccc(c23)C1=O)NO [C1]
8.000: [1]; 0 hours, 100 PPM | [1]; 1 hour, 12.5 PPM | [1]; 1 hour, 100 PPM | [1]; 4 hours, 12.5 PPM | [1]; 24 hours, 100 PPM | [2]; 0 hours, 12.5 PPM | [2]; 1 hour, 12.5 PPM | [2]; 1 hour, 200 PPM | [2]; 4 hours, 100 PPM | [3]; 1 hour, 12.5 PPM | [3]; 1 hour, 200 PPM | [4]; 1 hour, 12.5 PPM
7.000: [1]; 1 hour, 6.25 PPM | [1]; 1 hour, 200 PPM | [1]; 4 hours, 6.25 PPM | [1]; 4 hours, 25 PPM | [1]; 4 hours, 50 PPM | [1]; 4 hours, 200 PPM | [1]; 24 hours, 12.5 PPM | [2]; 0 hours, 100 PPM | [2]; 1 hour, 50 PPM | [2]; 4 hours, 200 PPM | [2]; 24 hours, 25 PPM | [2]; 24 hours, 100 PPM | [3]; 4 hours, 100 PPM | [3]; 4 hours, 200 PPM | [3]; 24 hours, 100 PPM | [3]; 24 hours, 200 PPM | [4]; 0 hours, 6.25 PPM | [4]; 0 hours, 25 PPM | [4]; 0 hours, 100 PPM | [4]; 0 hours, 200 PPM | [4]; 1 hour, 6.25 PPM | [4]; 4 hours, 6.25 PPM | [4]; 4 hours, 25 PPM | [4]; 4 hours, 100 PPM | [4]; 24 hours, 50 PPM | [4]; 24 hours, 200 PPM
7.333: [1]; 0 hours, 6.25 PPM | [1]; 0 hours, 25 PPM | [1]; 1 hour, 50 PPM | [1]; 24 hours, 6.25 PPM | [1]; 24 hours, 25 PPM | [2]; 0 hours, 25 PPM | [2]; 1 hour, 25 PPM | [2]; 1 hour, 100 PPM | [2]; 4 hours, 50 PPM | [2]; 24 hours, 12.5 PPM | [2]; 24 hours, 200 PPM | [3]; 1 hour, 100 PPM | [3]; 24 hours, 6.25 PPM | [3]; 24 hours, 12.5 PPM | [4]; 0 hours, 50 PPM | [4]; 1 hour, 25 PPM | [4]; 4 hours, 12.5 PPM | [4]; 24 hours, 12.5 PPM
6.333: [3]; 0 hours, 12.5 PPM | [3]; 0 hours, 200 PPM | [3]; 1 hour, 6.25 PPM | [3]; 1 hour, 25 PPM | [4]; 1 hour, 50 PPM | [4]; 1 hour, 100 PPM | [4]; 1 hour, 200 PPM | [4]; 24 hours, 6.25 PPM
7.667: [1]; 0 hours, 12.5 PPM | [1]; 0 hours, 50 PPM | [1]; 0 hours, 200 PPM | [1]; 1 hour, 25 PPM | [1]; 4 hours, 100 PPM | [1]; 24 hours, 50 PPM | [1]; 24 hours, 200 PPM | [2]; 0 hours, 6.25 PPM | [2]; 0 hours, 50 PPM | [2]; 0 hours, 200 PPM | [2]; 1 hour, 6.25 PPM | [2]; 4 hours, 6.25 PPM | [2]; 4 hours, 12.5 PPM | [2]; 4 hours, 25 PPM | [3]; 0 hours, 6.25 PPM | [3]; 4 hours, 6.25 PPM
6.000: [3]; 1 hour, 50 PPM | [3]; 24 hours, 25 PPM | [3]; 24 hours, 50 PPM
6.667: [2]; 24 hours, 6.25 PPM | [2]; 24 hours, 50 PPM | [3]; 0 hours, 25 PPM | [3]; 0 hours, 50 PPM | [3]; 0 hours, 100 PPM | [3]; 4 hours, 12.5 PPM | [3]; 4 hours, 25 PPM | [3]; 4 hours, 50 PPM | [4]; 0 hours, 12.5 PPM | [4]; 4 hours, 50 PPM | [4]; 4 hours, 200 PPM | [4]; 24 hours, 25 PPM | [4]; 24 hours, 100 PPM
